Legend:
[1] = test system: human precision-cut lung slices (huPCLS); assay: Proinflammatory cytokine gene levels (qPCR) in huPCLS after 4 Gy proton radiation; type: cell-based; conditions: 50 Mm LGM2605 given 4 hours prior, 30 min and 24 hours post irradiation, normalized to 18S rRNA
Method: (§1) FIG. 2: Novel Ex vivo model of human lung: human precision-cut lung slices for radiation exposure. Human Precision-cut slice preparation: Slices (huPCLS) were obtained by inflating the donor human lung with low melting temperature agarose, sectioning, coring, and slicing, as shown above. The 350 μm thick slices were washed three times with culture medium to rid airways of agarose and are viable at 37 °C, up to a week.
FIG. 3: Evaluation of inflammatory markers, in huPCLS, at 30 min and 24 hours post 4 Gy proton radiation with or without SDG pre-treatment for 4 hours. Transcript levels of (A) IL1B, (B) IL6 and (C) TNF-alpha are normalized to 18S rRNA. *p<0.05.
(§2) Methods: Since the testing of our hypothesis in human tissues is critical and cannot be mechanistically pursued in patients, we pursued a novel approach, using an ex vivo model of human normal lung precision-cut sections (huPCLS), used for the first time to our knowledge, in radiation studies. The huPCLS consist of all relevant cell types of the respiratory tract, situated in their microanatomical environment, validated for pharmacological testing. Human lung sections were exposed to 4 Gy proton radiation in the presence of 0 and 50 Mm LGM2605, given 4 hours prior to exposure. Tissues were evaluated 30 min and 24 hours post irradiation for gene expression, protein level changes, and betagalactosidase activity, relevant to inflammation, oxidative stress and senescence.

[2] = test system: human precision-cut lung slices (huPCLS); assay: Antioxidant gene levels (qPCR) in huPCLS after 4 Gy proton radiation; type: cell-based; conditions: 50 Mm LGM2605 given 4 hours prior, 30 min and 24 hours post irradiation, normalized to 18S rRNA
Method: as §1
FIG. 4: qPCR analysis of (A) HMOX-1 and (B) NQO1 in huPCLS after 30 min and 24 hours post 4 Gy proton radiation with or without SDG pretreatment for 4 hours. Data are represented as average fold change from non-irradiated control±SEM. Transcript levels of tested genes are normalized to 18S rRNA. *p<0.05.
as §2, with “Human lung sections were exposed to 4 Gy proton radiation in the presence of 0 and 50 Mm LGM2605, given 4 hours prior to exposure.” left out

[3] = test system: human precision-cut lung slices (huPCLS); assay: Senescence marker gene levels (qPCR) in huPCLS after 4 Gy proton radiation; type: cell-based; conditions: 50 Mm LGM2605 given 4 hours prior, 30 min and 24 hours post irradiation
Method: as §1
(§3) FIG. 6: LGM2605 decreases Proton Radiation-induced Senescence Markers, both at the Gene and Protein Level, in huPCLS. […] Transcript levels of tested genes are normalized to 18S rRNA.*p<0.05.
as §2

[4] = test system: human precision-cut lung slices (huPCLS); assay: Senescence marker protein levels (Western Blot of whole tissue lysates) in huPCLS treated with proton; type: cell-based; conditions: proton radiation, 50 Mm LGM2605 given 4 hours prior
Method: as §1, §3, §2

[5] = test system: human precision-cut lung slices (huPCLS); assay: SA-β-Gal staining of huPCLS post proton radiation; type: cell-based; conditions: 24 hour post proton radiation, 50 Mm LGM2605 given 4 hours prior
Method: as §1
FIG. 5: LGM2605 reduces senescent-like phenotype of huPCLS. […] A) SA-β-Gal staining of huPCLS at 24 hour post proton radiation. B) Quantification of the β-gal positive stained cells. Percentage change of the β-gal positive cells of the irradiated huPCLS compared to the nonirradiated huPCLS.
as §2, with “Human lung sections were exposed to 4 Gy proton radiation in the presence of 0 and 50 Mm LGM2605, given 4 hours prior to exposure.” left out

[6] = Activity of synthetic SDG compared with natural SDG; conditions: synthetic vs natural counterpart
From the text: Using a mouse model of proton radiation exposure, we have identified dose-dependent pathophysiological changes in the lung. […] Thus, we further hypothesize that LGM2605 will be effective against proton-induced pulmonary damage, such as inflammation, oxidative stress and senescence.

[7] = Antioxidant and free radical scavenging characteristics
From the text: FIG. 1. Bioactive polyphenolic plant lignans in flaxseed and radiation Damage. Secoisolariciresinol diglucoside (SDG) is the major lignan phenolic in flaxseed. Due to complex SDG extraction, purification and enrichment methods from natural resources, SDG was chemically synthesized. […] (B) The structure of SDG.

For `COc1cc(C[C@@H](CO[C@@H]2O[C@H](CO)[C@@H](O)[C@H](O)[C@H]2O)[C@H](CO[C@@H]2O[C@H](CO)[C@@H](O)[C@H](O)[C@H]2O)Cc2ccc(O)c(OC)c2)ccc1O` [LGM2605, secoisolariciresinol diglucoside], the “IL-1β (IL1B) inflammatory marker gene level” value [1] was “reduction”, the “IL-6 (IL6) inflammatory marker gene level” value [1] was “reduction” and the “TNFα inflammatory marker gene level” value [1] was “reduction”. The “antioxidant HO (HMOX-1) gene level” value [2] was “increase”, the “antioxidant NQO1 gene level” value [2] was “increase” and the “CDKN2A senescent marker gene level” value [3] was “reduces”. The “TP53 senescent marker gene level” value [3] was “reduces”, the “p16 senescent marker protein level” value [4] was “reduces” and the “p53 senescent marker protein level” value [4] was “reduces”. The “senescent-like phenotype (SA-β-galactosidase positive staining)” value [5] was “protects huPCLS from a senescent-like phenotype”, the “activity relative to natural SDG” value [6] was “equipotent activity with its natural counterpart” and the “antioxidant and free radical scavenging characteristics” value [7] was “strong antioxidant and free radical, scavenging characteristics”.

Reference: patent US20180243327A1, “USE OF SECOISOLARICIRESINOL DIGLUCOSIDES (SDGs) AND RELATED COMPOUNDS FOR PROTECTION AGAINST RADIATION DAMAGE” (THE TRUSTEES OF THE UNIVERSITY OF PENNSYLVANIA, priority 2015, published 2018)
